Consider 1 substance from US11471467B2, “Ruthenium complexes for treating cancer which comprises cancer stem cells” (UNIVERSIDADE DE SANTIAGO DE COMPOSTELA, priority 2016, dated 2022).

The subject of assay [1] is PDAC cancer stem cells. In words: Sphere formation (self-renewal) of PDAC cancer stem cells. It is filed as cell-based. As to conditions: for sphere formation capacity (self-renewal): PDAC cells pre-treated twice with 100 and 250 μM, treated again on day 4, against control cultures. The procedure: (§1) On one hand, the inventors analyzed if complex 2 may increase c-MYC expression in pancreatic CSCs, and on the other hand, if the increase in c-MYC expression would negatively affect the CSC phenotype, for example, CSC self-renewal capacity. […] After having achieved a substantial increase in c-MYC expression, it was then analyzed if the CSC self-renewal capacity was affected. To that end, briefly the PDAC cells were pre-treated twice with complex 2 (RuH2O) at a concentration of 100 and 250 μM before establishing sphere cultures in […] as described in Cioffi M (Cioffi M et al. 2015 Gut 12: 1936-1948). The spheres were again treated on day 4 after sphere formation.
It was then evaluated if ruthenium complex 2 may negatively affect CSC phenotypes, such as self-renewal and tumorigenicity. […] During these 7 days, the samples were treated again with 250 μM of RuH2O on days 1, 3, and 5 after initiation of the spheres. […] The CSC spheres were smaller and less abundant in the RuH2O group.
(§2) The trypsinized cells were then: 1) placed in a plate at a low confluence to evaluate their clonogenicity (FIG. 25); 2) repeatedly cultured in ultra-low adherent plates in serum-free DMEM/F12 supplemented with B27 for intervals of 7 days to evaluate sphere formation capacity over multiple generations (FIG. 26); and 3) subcutaneously injected into NOD-SCID mice to check their tumorigenicity as described above (FIG. 27).

Assay [2] relates to Panc185 and PancA6L cells. In words: Clonogenicity of PDAC cells. In kind it is cell-based. As to conditions: adherent cultures treated 48 hours with 100 or 250 μM, 10 days in culture. The procedure:
FIG. 25. Clonogenicity of PDAC cells after treatment with RuH2O. (Top) Light micrographs of Panc185 and PancA6L colonies formed after 10 days in culture. The colonies were visualized with crystal violet staining. (Bottom) Colony efficiency quantification. The colonies were lysed in PBS-1% Triton-X and color intensity was measured with a plate reader.
as §2

In assay [3] the test system is Panc185 cells. In words: Tumorigenicity of pretreated PDAC cells injected subcutaneously into NOD-SCID mice. In kind it is in vivo. The procedure:
FIG. 22. Effects of RuH2O on PDAC sphere formation. (A) Work sequence of the experiment for evaluating the effect of RuH2O in PDAC CSC (B) Light micrographs of spheres derived from Panc185 and PancA6L cells after 10 days of treatment with 250 μM of RuH2O FIG. 23. Effects of RuH2O on PDAC tumorigenicity in vivo. Panc185 cells were pretreated with RuH2O before subcutaneous injection into NOD-SCID (non-obese diabetic, severe combined immunodeficiency) mice. Tumors were extracted 12 weeks after injection and analyzed. A) Photographs of the tumors extracted from NOD-SCID mice 12 weeks after being injected with 10^4 or 10^3 Panc185 cells and pretreated with control (CTL) or 250 μM of RuH2O. (B) Summary of the numbers of tumors detected per injection with 10^4 or 10^3 Panc185 cells and pretreated with control (CTL) or 250 μM of RuH2O. (C) Weights of the tumors extracted from NOD-SCID mice 12 weeks after being injected with 10^4 or 10^3 Panc185 cells and pretreated with control (CTL) or 250 μM of RuH2O.
FIG. 27. Tumorigenicity of PDAC cells after treatment with RuH2O. PDAC cells were treated with the indicated concentrations of RuH2O for 48 hours and then injected subcutaneously into NOD-SCID mice. Tumors were extracted 7 or 11 weeks after injection.
The spheres were then disassociated and equal numbers of control-treated cells and RuH2O-treated cells were injected subcutaneously into immunocompromised NOD-SCID mice to evaluate the tumorigenicity thereof. Twelve weeks after the injection, the tumors were extracted and weighed. […] While 4 out of 4 injections and 5 out of 6 injections with 10,000 and 1,000 control-treated cells, respectively, led to tumors, only 1 out of every 6 injections with 10,000 RuH2O-treated cells led to tumor. […] Furthermore, the only tumor that developed in the mouse injected with 10,000 RuH2O-treated cells weighed 53 times less than the tumors formed in control-treated mice (0.0058 g with respect to 0.3118 g).
as §2
Finally, the tumorigenicity of sphere-rich CSCs was studied as described above.

Assay [4] concerns Panc185 and PancA6L cells. In words: qRT-PCR gene expression in adherent PDAC cultures. As to conditions: 100 μM, 24 hours. It is filed as cell-based. On the procedure:
FIG. 19. […] The RNA of Panc185 and PancA6L cells was extracted 24 hours after treatment with 100 μM of RuH2O. qRT-PCR analysis of Oct3/4, Sox2, and PGC1alpha was performed in cDNA generated from treated samples. […] Panc185 cells are also interchangeably referred to herein as 185 and 185 scd and Pacn6AL cells are also interchangeably referred to herein as A6L.
Furthermore, a reduction in PGC1alpha expression, a known c-MYC target, and a reduction in pluripotency-associated genes Oct3/4 and Sox2 were observed after treatment with 100 μM of RuH2O for 24 hours (FIG. 19).

Assay [5] relates to c-MYC. In words: c-MYC protein expression by Western blot in PDAC cells. In kind it is cell-based. The procedure:
FIG. 17. Effects of complex 2 (RuH2O) on pancreatic ductal adenocarcinoma (PDAC) cells.
FIG. 18. […] Western blot analysis of the expression of c-MYC in cultures 24 and 48 h after treatment with RuH2O.
as §1

In the case of [Ru(terpy) (bpy)H2O]^2+ [complex 2], the “sphere formation capacity (self-renewal)” value in assay [1] was “significant, dose-dependent reduction in the sphere formation capacity”; in assay [1] (listed as Complex 2), “reduces the self-renewal capacity”. Moreover, in assay [1] (PDAC cells, 250 μM for 24 hours, again on days 1, 3 and 5, against control), the sphere formation capacity entry is on record as “significant reduction in the sphere formation capacity”. Besides, in assay [1] (adherent cultures treated 48 hours with 100 or 250 μM), the “self-regeneration (sphere formation over multiple generations)” value is “prevents clonogenicity, self-regeneration, and tumorigenicity”. For the same substance, the clonogenicity result in assay [2] is “prevents clonogenicity, self-regeneration, and tumorigenicity”. Moreover, the tumor formation entry in assay [3] (1,000 sphere-derived cells pretreated with 250 μM, NOD-SCID mice, 12 weeks) is “Tumors did not form”. The “tumor weight, times less than control-treated” value in assay [3] (10,000 pretreated cells, 12 weeks) is listed as 53 times. For the same substance, the tumor weight in assay [3] (10,000 pretreated cells, 12 weeks, the only tumor) came out at 0.0058 g. Also, the tumorigenicity result in assay [3] (adherent cultures treated 48 hours, injected subcutaneously into NOD-SCID mice, 7 or 11 weeks) is “prevents clonogenicity, self-regeneration, and tumorigenicity”. Moreover, the Oct3/4 expression entry in assay [4] is listed as “reduction”. Moreover, the PGC1alpha expression result in assay [4] is listed as “reduction”. The Sox2 expression result in assay [4] is “reduction”. Further, the c-MYC protein expression result in assay [5] (PDAC cells, 100 and 250 μM, 6, 12 or 24 hours) is “expression of c-MYC increased after treatment”; in assay [5] (PDAC cells, 100 and 250 μM, 6, 12 or 24 hours, listed as Complex 2), “increases the expression of c-MYC”; in assay [5] (Panc185 and PancA6L cells, 100 μM, 24 hours after treatment) it was “increased c-MYC protein expression”. Also, the c-MYC protein levels entry in assay [5] (Panc185 and PancA6L cells, 48 hours after treatment) was “significant decrease in c-MYC protein levels”.
